Experimental data published in patent US20140303216A1, “COMPOSITIONS AND METHODS FOR INDUCING DISRUPTION OF BLOOD VASCULATURE AND FOR REDUCING ANGIOGENESIS” (BOARD OF REGENTS, THE UNIVERSITY OF TEXAS SYSTEM, priority 2011, published 2014).

Assays:
[1] = system: Xenopus embryos; test: Xenopus embryo morphology and developmental defects; assay type: in vivo
Excerpt: Female adult Xenopus were ovulated by injections of human chorionic gonadotropin, and eggs were fertilized in vitro and dejellied in 3% cysteine (pH 7.9) and subsequently reared in 1⁄3×Marc's modified Ringer's (MMR) solution. For microinjections, embryos were placed in a solution of 2% Ficoll in 1⁄3×MMR solution, injected using forceps and an Oxford universal manipulator, reared in 2% Ficoll in 1⁄3×MMR to stage 9, then washed and reared in 1⁄3×MMR solution alone. For bilateral rab11b knock-down experiments, the posterior cardinal vein and intersomitic veins were targeted by injecting Morpholino antisense oligonucleotides (MOs) into the two ventral cells equatorially at the four-cell stage. For unilateral knockdown, only one ventral cell was injected. MOs were injected at 40 ng per blastomere. For the experiments to see the drug effects, embryos were placed in a solution of each chemical dissolved in 1% DMSO diluted in 1⁄3×MMR during indicated stages. For bead micro-surgery implantation, Affi-Gel Blue Gel beads (Bio-Rad) were soaked with 0.7 mg/ml recombinant mouse VEGF 164 aa (R&D systems) or BSA as a control. Whole-mount in situ hybridization for […] performed as described^29. Immunostaining for Xenopus was performed as previously described (Lee et al., 2008). Embryos at stage 35-36 were fixed in 1×MEMFA. 12/101 (1:500; DSHB), and primary antibodies were detected with Alexa Fluor-488 or 555 goat anti-mouse Immunoglobulin (IgG).

[2] = system: human umbilical vein endothelial cells (HUVECs); test: HUVEC tube formation, in vitro angiogenesis assay; assay type: cell-based
Protocol: Human umbilical vein endothelial cells (HUVECs) were purchased from Clonetics, and were used between passages 4 and 9. HUVECs were cultured on 0.1% gelatin-coated (Sigma) plates in endothelial growth medium-2 (EGM-2; Clonetics) in tissue culture flasks at 37° C. in a humidified atmosphere of 5% CO2. HUVECs (10^4 cells) were seeded in a 96-well plate coated with 50 μl of ECMatrix (Chemicon) or Matrigel (BD Bioscience) according to the manufacturer's instructions. Cells were incubated for 16 h on EGM-2 containing thiabendazole, dissolved in 1% DMSO. Negative control cells were treated with 1% DMSO in the same manner. As a positive control, siRNA versus the human HoxA9 sequence^30 was transfected into HUVECs using Lipofectamine RNAiMAX (Invitrogen) according to the manufacturer's instructions. Tube formation was observed using an inverted microscope (Nikon, eclipse TS100), and branch points were measured using ImageJ software (http://rsb.info.nih.gov/ij).

[3] = system: vasculature within kdr:GFP frogs; test: Time-lapse fluorescence microscopy of vasculature in kdr:GFP Xenopus embryos; assay type: in vivo, Xenopus laevis
Excerpt: Immunohistochemistry and kdr:GFP transgenic Xenopus laevis were imaged on an inverted Zeiss LSM5 Pascal confocal microscope and Zeiss 5-LIVE Fast Scanning confocal microscope. Confocal images were processed and cropped in Imaris software (BITPLANE) and Adobe Illustrator and Adobe Photoshop for compilation of Figures.
To analyze action of TBZ precisely on inhibition of angiogenesis and disruption of vasculature, we tested TBZ on two different developmental stages. Xenopus late tailbud embryos at stage 31 were selected for testing the inhibitory effect of TBZ on angiogenesis (FIG. 3A-D). This embryonic stage coincides with the onset of intersomitic vein (ISV) angiogenesis, the process of forming smaller blood vessels by sprouting from pre-existing blood vessels. To observe disruption of existing vasculature, we selected stage 35/36 embryos in which the posterior cardinal vein (PCV) and ISV are already developed (FIG. 15).
As a direct test of the vascular disrupting activity of TBZ, we performed time-lapse imaging of developing vasculature. Using Kdr-GFP transgenic embryos^12 and time-lapse confocal microscopy^22, we could effectively image developing vasculature in vivo for periods of up 20 hours. During this time, the growth of existing blood vessels and the sprouting of new vasculature could be easily followed (FIG. 16). […] Upon longer exposures, endothelial cells scattered and many underwent dramatic rounding (FIGS. 5A, 17).

[4] = system: developing Xenopus embryos; test: Ectopic angiogenesis stimulated by VEGF-soaked beads implanted into Xenopus embryos; assay type: in vivo, Xenopus laevis
Protocol: FIG. 12. TBZ inhibits ectopic angiogenesis (note the doubled PCV in the left panel) stimulated by Affy-gel blue beads (75-150 μm diameter, indicated by white arrowheads) pre-soaked with 0.7 mg/ml vascular endothelial growth factor (VEGF) and microsurgically implanted into developing Xenopus embryos, assaying for the vasculature by ISH versus erg or apinr (showing data for erg). 6 of 8 control animals developed ectopic PCV or VV, as opposed to 0 of 9 TBZ-dosed animals (p value=0.0023).
Female adult Xenopus were ovulated by injections of human chorionic gonadotropin, and eggs were fertilized in vitro and dejellied in 3% cysteine (pH 7.9) and subsequently reared in ⅓×Marc's modified Ringer's (MMR) solution. For microinjections, embryos were placed in a solution of 2% Ficoll in ⅓×MMR solution, injected using forceps and an Oxford universal manipulator, reared in 2% Ficoll in ⅓×MMR to stage 9, then washed and reared in ⅓×MMR solution alone. For bilateral rab11b knock-down experiments, the posterior cardinal vein and intersomitic veins were targeted by injecting Morpholino antisense oligonucleotides (MOs) into the two ventral cells equatorially at the four-cell stage. For unilateral knockdown, only one ventral cell was injected. MOs were injected at 40 ng per blastomere. […]

[5] = system: HT1080 cells; test: HT1080 cell proliferation in vitro; assay type: cell-based, human; details: cultured in vitro
Excerpt: FIG. 21. […] Error bars represent mean±1 s.d. across 14-15 fields of view of 200× magnification confocal microscopy cell images across 2 independent experiments. Scale bar, 100 μm.

[6] = system: HUVECs; test: HUVEC wound scratch cell migration assay; assay type: cell-based, human; details: 250 μM TBZ, 15 h
Protocol: HUVECs (1.2×10^5 cells) were seeded into 24-well plate for 24 h, and the monolayers were wounded identically. Then, cells were washed with PBS and treated with EBM-2 containing 1% DMSO or 250 μM TBZ dissolved in 1% DMSO with combination of Y27632 or GGPP (Sigma). In the case of Y27632 treatment, cells were preincubated for 2 h before wounding. Cells were photographed at time zero and after 15 h, and the ratios of cell free area [(0 h-15 h)/0 h] were calculated.

somitic muscle, defined with the 12/101 antibody ([1]; 250 μM TBZ, 1% DMSO, treated at stage 31, imaged at stages 35-36, compared to 1% DMSO control): normal
overall morphology and patterning of treated Xenopus embryos ([1]; at the stages when the vasculature was severely disrupted): grossly normal
SMILES: c1ccc2[nH]c(-c3cscn3)nc2c1 [TBZ, 4-(1H-1,3-benzodiazol-2-yl)-1,3-thiazole]
angiogenesis (tube formation) in HUVECs ([2]; 100 and 250 μM TBZ in 1% DMSO, 16 h): inhibited angiogenesis in a dose-dependent manner
concentration at which angiogenesis inhibition was observed ([2]; human cells in vitro): 100 to 250 µM
exposure time after which established blood vessels disintegrated ([3]; Kdr-GFP transgenic embryos): approximately 90 minutes
growth and sprouting of blood vessels ([3]; Kdr-GFP transgenic embryos, time-lapse confocal microscopy): completely prevented
persistence of vascular gene expression in dispersed, rounded kdr-GFP+ endothelial cells after treatment ([3]; in vivo): up to 17 hours
time within which endothelial cells retract from one another and round up ([3]; in vivo imaging of the vasculature): ≤ 2 h
recovery of vasculature after washout of the drug ([3]; washout after TBZ-induced cell dispersal and rounding): significant re-spreading of endothelial cells and re-formation of blood vessels
animals that developed ectopic PCV or VV ([4]; beads soaked with 0.7 mg/ml VEGF, control 6 of 8, p value=0.0023): 0 of 9
ectopic angiogenesis induced by ectopic VEGF ([4]; frog embryos): blocked
rate of proliferation in HT1080 cells [5]: did not alter
endothelial cell migration in scratch wound assay [6]: significantly slowed
